According to US9586994B2, “CD44V6-derived peptides for treating breast cancer” (KARLSRUHER INSTITUT FÜR TECHNOLOGIE, priority 2012, dated 2017):

Assays:
CD44v6 [1] = assay: Peptide blocking of ErbB ligand- or HGF-induced Erk-kinase phosphorylation in HT29 cells (Western blot); assay type: cell-based, human; details: peptide 100 ng/ml; for EGF-dependent Erk-phosphorylation: EGF 20 ng/ml
Protocol: 3×10^5 were seeded per well of a 6-well plate and serum-starved for 24 hours. Afterwards the medium inside of each well was reduced to 1 ml and the respective peptide (v6 (both peptides of SEQ ID No.: 2 and 6 were tested), or ctrl peptide) was added at a concentration of 100 ng/ml. The cells then were incubated together with the peptide at 37° C. for 5 mins. Ligand concentration for all peptide blocking experiments was 20 ng/ml.
The cells were incubated with the growth factors specified in the particular experiment. Except for the peptide blocking and migration assays, ligand concentration was 5 ng/ml at all times. Prior to induction the cells were treated as indicated in the results section.
To assay protein expression via Western blot cells were washed 1× with PBS and afterwards lysed in 2×Laemmli sample buffer (160 mM Tris-HCl pH 6.8, 4% SDS, 16% glycerol, 0.1M DTT, 0.01% bromphenol blue). The sample was sheared through a 26 gauge needle. In succession the lysates were boiled for 5 mins at 99° C. in order to denature the proteins in the sample and then spun down at 10 000 rmp for 1 min Eventually the samples were loaded onto an SDS-PAGE gel.
In order to test whether CD44v6 plays a role in the activation of the ErbB family of receptors, a peptide blocking experiment using the 14mers of SEQ ID No. 6 was performed in HT29 cells. The fact that this cell line expresses all ErbB receptors (Wu et al, 2009, see references) and several CD44 variants including also exon v3 and v6 (Orian-Rousseau et al., 2002, see references) makes it a suitable tool to evaluate the co-receptor function of CD44 proteins for the ErbB family. The first ErbB1-ligand that was evaluated was EGF. […] The cells were serum starved for 24 hours and induced with EGF. Phosphorylation of the Erk-Kinase, a downstream target of the ErbB receptor family, was used as a read-out for ErbB receptor activation. HGF was used as a control to test the blocking efficiency of the CD44v6 peptide since the induction of the Erk kinase through Met is dependent on CD44v6 (Orian-Rousseau et al., 2002, see references).
Besides EGF, five other ligands, namely AR, BC, ER, HB-EGF, and TGFα, can activate the ErbB1 receptor. EGF, AR and TGFα bind to either an ErbB1-homo- or an ErbB1/2-heterodimer. In addition to these dimers, BC, ER and HB-EGF can also bind to an Erb4/4 homo- or an ErbB2/4 heterodimer. It was investigated whether the activation of the ErbB receptors by the indicated ligands is also dependent on CD44v6. HT29 cells were serum-starved for 24 hours and pre-treated with the v6-specific or a control peptide. They were then induced with the indicated ErbB ligands. Erk-kinase phosphorylation was used as a read-out for receptor activation.
For this purpose HT29 cells were serum-starved for 24 hours and pre-treated with the v6-specific or a control peptide. They were then induced with the indicated ErbB ligands. Erk-kinase phosphorylation was used as a read-out for receptor activation. All ligands could activate the Erk-kinase. […] These ligands are independent of CD44v6 for their induction of the ErbB receptors. This is especially striking, since EGF and TGF-α address the same receptor pairs (ErbB1/1 or ErbB1/2).

CD44v6 [2] = assay: HGF-induced activation of Met and Erk in HeLa cells (Western blot); assay type: cell-based, human
Protocol: (§1) FIG. 28: A: Activation of Met and signal transduction induced by HGF depends on CD44v6 in L3.6pl cells. L3.6pl cells were treated with the human v6 peptide (human v6 14mer) or the rat v6 peptide as control prior to induction with 10 ng/ml HGF. Activation of Met and ERK was determined in western blot. The numbers refer to the fold induction. The experiment was repeated at least 5 times. B: Activation of c-Met and signal transduction induced by HGF depends on CD44v6 HeLa cells. Starved HeLa cells respectively HT29 cells were incubated with the v6 peptide (human v6 14mer) or a control peptide for 10 minutes at 37° C. and then induced with 25 ng/ml of HGF for the indicated time points. Cells were then either lysed and the lysates were subjected to Western Blot analysis for phospho-Met and Met. C: Activation of c-Met and signal transduction induced by HGF depends on CD44v6 in HT29 cells. HGF-induced c-Met and Erk phosphorylation in HT29 was determined as described above using phospho-specific antibodies. […]
(§2) The contribution of CD44v6 to Met signaling in the human epithelial pancreatic cancer cells L3.6pl (derived from Colo 357), the cervix carcinoma cells HeLa and the colon cancer cells HT29 were analysed using the CD44v6 peptide (v6 14mer; v6 5mer tested as well, data not shown).

CD44v6 [3] = assay: HGF-induced activation of Met and Erk in HT29 cells (Western blot); assay type: cell-based, human
Protocol: as §1, §2

L3.6pl cells = assay: Human VEGF in cell culture supernatant of L3.6pl cells (Quantikine immunoassay); assay type: cell-based; details: peptide 200 ng/ml in the culture medium, 5 days
Protocol: Determination of human HGF and VEGF levels in cell culture medium of L3.6pl cells were performed using the Quantikine Human HGF Immunoassay and Quantikine Human VEGF Immunoassay from Roche (Mannheim, GER) and R&D Systems (Wiesbaden, Germany) For this purpose 3×10^6 cells were cultured for 5 days in a 15 cm plate in the presence of the respective peptides as indicated. The supernatant by centrifugation (20 ml) was centrifuged (1200 rpm) and the assay was performed according to manufacturer's instructions.

KEQWFGNRWHEGYR [SEQ ID NO: 6, human CD44v6 14mer peptide]
EGF-dependent Erk-phosphorylation (CD44v6 [1]; HT29, serum-starved, 5 min pre-incubation, listed as CD44v6 peptide): could be inhibited
EGF-dependent Erk-phosphorylation (CD44v6 [1]; HT29, serum-starved, 5 min pre-incubation, listed as human v6 14mer): inhibited
HGF-dependent Erk-phosphorylation (CD44v6 [1]; HT29, serum-starved, 5 min pre-incubation, HGF as control ligand): could be inhibited
AR-induced activation of the ErbB receptors (Erk phosphorylation) (CD44v6 [1]; HT29, AR 20 ng/ml): could not be inhibited
BC-induced activation of the ErbB receptors (Erk phosphorylation) (CD44v6 [1]; HT29, BC 20 ng/ml): could not be inhibited
ER-dependent Erk-phosphorylation (CD44v6 [1]; HT29, ER 20 ng/ml): inhibited
HB-EGF-induced activation of the ErbB receptors (Erk phosphorylation) (CD44v6 [1]; HT29, HB-EGF 20 ng/ml): could not be inhibited
TGFα-induced activation of the ErbB receptors (Erk phosphorylation) (CD44v6 [1]; HT29, TGFα 20 ng/ml): could not be inhibited
HGF-induced activation of downstream target Erk (CD44v6 [2]; peptide before induction with HGF): able to prevent activation
HGF-induced activation of Met (CD44v6 [2]; starved, peptide 10 min 37° C., HGF 25 ng/ml): able to prevent activation
HGF-induced activation of Met (CD44v6 [3]; HT29, starved, peptide 10 min 37° C., HGF 25 ng/ml): able to prevent activation
HGF-induced activation of downstream target Erk (CD44v6 [3]; HT29, peptide before induction with HGF): able to prevent activation
hVEGF secretion by L3.6pl cells (L3.6pl cells): can be blocked
